Measurements reported in DBAASP.
Values after ≈ are worked out from the molar mass of the structure shown. Values joined by “and” are separate entries in the source; they are usually repeats but may differ in a detail not shown here. Identical values can stand only once.

Tests used:
Assay in all cases: ≥ marks a high value that may be exact or a test limit, other limits are often not marked, values filed in µg/mL are converted to µM
[1] = tested on: Bacillus amyloliquefaciens ATCC 23842
[2] = tested on: Bacillus cereus ATCC 14579
[3] = tested on: Bacillus licheniformis ATCC 14580
[4] = tested on: Bacillus subtilis ATCC 6051
[5] = tested on: Enterococcus faecalis 1F-1
Enterococcus faecalis A4 = tested on: Enterococcus faecalis A4
[6] = tested on: Enterococcus faecium 4W-9
[7] = tested on: Enterococcus faecium 5F-10
[8] = tested on: Escherichia coli ATCC 25922
[9] = tested on: Proteus mirabilis ATCC 35659
[10] = tested on: Pseudomonas aeruginosa PAO1
[11] = tested on: Salmonella enterica ATCC H9812
[12] = tested on: Staphylococcus aureus 215
[13] = tested on: Staphylococcus aureus ATCC 29213
Staphylococcus aureus MR = tested on: Staphylococcus aureus MR
Acinetobacter baumannii = tested on: Acinetobacter baumannii
[14] = tested on: Bacillus cereus CGMCC 1.932
[15] = tested on: Bacillus subtilis CMCC 63501
[16] = tested on: Enterococcus faecalis ATCC 29212
Escherichia coli 078 = tested on: Escherichia coli 078
Escherichia coli K88 = tested on: Escherichia coli K88
Escherichia coli K99 = tested on: Escherichia coli K99
Escherichia coli UB1005 = tested on: Escherichia coli UB1005
[17] = tested on: Listeria monocytogenes CGMCC 1.1075
[18] = tested on: Pseudomonas aeruginosa ATCC 27853
[19] = tested on: Salmonella enterica subsp. enterica serovar Pullorum ATCC 7913
[20] = tested on: Salmonella enterica subsp. enterica serovar Typhimurium ATCC 14028
[21] = tested on: Salmonella typhimurium ATCC 7731
[22] = tested on: Staphylococcus aureus ATCC 25923
[23] = tested on: Staphylococcus aureus ATCC 43300
[24] = tested on: Staphylococcus epidermidis ATCC 12228
[25] = tested on: Escherichia coli DH5alpha
[26] = tested on: Pseudomonas aeruginosa NBRC 13275
[27] = tested on: Staphylococcus aureus NBRC 13276
[28] = tested on: Candida albicans NBRC 1385
[29] = tested on: Cutibacterium acnes JCM 6473
[30] = tested on: Porphyromonas gingivalis ATCC 33277
[31] = tested on: Streptococcus mutans JCM 5705
[32] = tested on: Acinetobacter baumannii KCTC 2508
[33] = tested on: Bacillus subtilis KCTC 2217
Escherichia coli BL21AI = tested on: Escherichia coli BL21AI
[34] = tested on: Micrococcus luteus DSM 1790
[35] = tested on: Enterococcus faecalis CECT 481
[36] = tested on: Staphylococcus aureus CECT 435
[37] = tested on: Streptococcus agalactiae CECT 183T

**Q.** Which results are given for CC(C)C[C@H](NC(=O)[C@H](CC(C)C)NC(=O)[C@@H](N)CCC(=O)O)C(=O)N[C@@H](CO)C(=O)N[C@@H](CCCCN)C(=O)N[C@H](C(=O)N[C@@H](CC(=O)O)C(=O)O)C(C)C [ELLSKVD]?
**A.** MIC [1]: ≥ 159 µM; MIC [2]: ≥ 159 µM; MIC [3]: ≥ 159 µM; MIC [4]: ≥ 159 µM; MIC [5]: ≥ 159 µM; MIC (Enterococcus faecalis A4): ≥ 159 µM; MIC [6]: ≥ 159 µM; MIC [7]: ≥ 159 µM; MIC [8]: 79.7 µM (≈ 64 µg/mL); MIC [9]: ≥ 79.7 µM; MIC [10]: > 159 µM; MIC [11]: ≥ 159 µM; MIC [12]: ≥ 79.7 µM; MIC [13]: 79.7 µM (≈ 64 µg/mL); MIC (Staphylococcus aureus MR): ≥ 79.7 µM

**Q.** Which results are given for NCC(=O)N[C@@H](CCCN=C(N)N)C(=O)N[C@@H](Cc1c[nH]c2ccccc12)C(=O)N[C@@H](CCCN=C(N)N)C(=O)N[C@@H](Cc1c[nH]c2ccccc12)C(=O)N[C@@H](Cc1c[nH]c2ccccc12)C(=O)N[C@@H](Cc1c[nH]c2ccccc12)C(=O)N[C@@H](CCCN=C(N)N)C(=O)N[C@@H](Cc1c[nH]c2ccccc12)C(=O)N[C@@H](CCCN=C(N)N)C(=O)N[C@@H](Cc1c[nH]c2ccccc12)C(N)=O [GRWRWWWRWRW]?
**A.** MIC (Acinetobacter baumannii): 2 µM (≈ 3.63 µg/mL); MIC [14]: 8 µM (≈ 14.5 µg/mL); MIC [15]: 8 µM (≈ 14.5 µg/mL); MIC [16]: 2 µM (≈ 3.63 µg/mL); MIC (Escherichia coli 078): 4 µM (≈ 7.26 µg/mL); MIC (Escherichia coli K88): 2 µM (≈ 3.63 µg/mL); MIC (Escherichia coli K99): 2 µM (≈ 3.63 µg/mL); MIC (Escherichia coli UB1005): 4 µM (≈ 7.26 µg/mL); MIC [17]: 2 µM (≈ 3.63 µg/mL); MIC [18]: 8 µM (≈ 14.5 µg/mL); MIC [10]: 4 µM (≈ 7.26 µg/mL); MIC [19]: 2 µM (≈ 3.63 µg/mL); MIC [20]: 2 µM (≈ 3.63 µg/mL); MIC [21]: 16 µM (≈ 29.1 µg/mL); MIC [22]: 2 µM (≈ 3.63 µg/mL); MIC [23]: 2 µM (≈ 3.63 µg/mL); MIC [24]: 4 µM (≈ 7.26 µg/mL)

**Q.** Which results are given for CC(=O)N[C@@H](CCCCN)C(=O)N[C@@H](Cc1ccccc1)C(=O)N[C@@H](CC(C)C)C(=O)N[C@@H](Cc1cnc[nH]1)C(=O)N[C@@H](CO)C(=O)N[C@@H](C)C(=O)N[C@@H](CCCCN)C(=O)N[C@@H](CCCCN)C(=O)N[C@@H](Cc1ccccc1)C(=O)NCC(=O)N[C@@H](CCCCN)C(=O)N[C@@H](C)C(=O)N[C@@H](Cc1ccccc1)C(=O)N[C@H](C(N)=O)C(C)C [KFLHSAKKFGKAFV]?
**A.** MIC [25]: ≥ 200 µM; MIC [26]: ≥ 200 µM; MIC [27]: ≥ 400 µM

**Q.** For CC[C@H](C)[C@H](NC(=O)[C@H](CCCN=C(N)N)NC(=O)CNC(=O)[C@H](Cc1ccc(O)cc1)NC(=O)[C@H](CCC(N)=O)NC(=O)[C@H](CC(N)=O)NC(=O)[C@@H](N)CCCCN)C(=O)N[C@@H](CCCN=C(N)N)C(=O)N[C@H](C(=O)N[C@@H](CC(C)C)C(=O)N[C@@H](CCC(N)=O)C(=O)N[C@@H](CCCN=C(N)N)C(=O)N[C@@H](Cc1ccccc1)C(=O)N[C@@H](CC(N)=O)C(=O)N[C@@H](CCC(N)=O)C(=O)N[C@@H](CCCN=C(N)N)C(=O)O)C(C)C [KNQYGRIRVLQRFNQR], which MIC [28] is on record?
**A.** The MIC was at least 1020 µM.

**Q.** And the MIC [29]?
**A.** The MIC was at least 1020 µM.

**Q.** What about the MIC [30] of the same molecule?
**A.** The MIC was at least 1020 µM.

**Q.** And the MIC [31]?
**A.** The MIC was at least 1020 µM.

**Q.** How did the MIC [32] turn out when CC(C)C[C@H](NC(=O)[C@H](CCCCN)NC(=O)[C@H](CCCCN)NC(=O)[C@H](CC(C)C)NC(=O)[C@H](CC(C)C)NC(=O)[C@@H]1CCCN1C(=O)[C@H](CCCCN)NC(=O)[C@H](CCCCN)NC(=O)[C@H](CC(C)C)NC(=O)[C@H](CC(C)C)NC(=O)[C@H](CCCCN)NC(=O)[C@H](CCCCN)NC(=O)[C@H](Cc1c[nH]c2ccccc12)NC(=O)[C@@H](N)CCCCN)C(N)=O [KWKKLLKKPLLKKL] was run?
**A.** Its MIC is 12.5 µM (≈ 22 µg/mL).

**Q.** What about the MIC [33] of the same molecule?
**A.** Its MIC is 3.13 µM (≈ 5.52 µg/mL).

**Q.** And the MIC [22]?
**A.** Its MIC is 1.56 µM and > 0.78 µM.

**Q.** What does the source list for CC[C@H](C)[C@H](NC(=O)[C@H](CCCN=C(N)N)NC(=O)[C@H](CCCN=C(N)N)NC(=O)[C@@H]1CCCN1C(=O)[C@@H]1CCCN1C(=O)[C@@H]1CCCN1C(=O)[C@@H]1CCCN1C(=O)[C@H](CCCN=C(N)N)NC(=O)[C@@H]1CCCN1C(=O)[C@H](CC(C)C)NC(=O)[C@H](Cc1ccc(O)cc1)NC(=O)[C@@H]1CCCN1C(=O)[C@@H]1CCCN1C(=O)[C@H](CCCCN)NC(=O)[C@H](CC(=O)O)NC(=O)[C@@H](N)C(C)C)C(=O)N[C@@H](Cc1ccc(O)cc1)C(=O)N[C@@H](CC(N)=O)C(=O)O [VDKPPYLPRPPPPRRIYN]?
**A.** MIC (Escherichia coli BL21AI): ≥ 57.5 µM; MIC [34]: 28.7 µM (≈ 62.5 µg/mL)

**Q.** CC[C@H](C)[C@H](NC(=O)[C@H](CC(C)C)NC(=O)[C@@H](NC(=O)[C@@H](NC(=O)[C@@H]1CCCN1C(=O)[C@H](CS)NC(=O)[C@H](CO)NC(=O)CNC(=O)[C@@H]1CCCN1C(=O)[C@H](CCCCN)NC(=O)[C@@H](NC(=O)[C@H](CO)NC(=O)[C@@H](NC(=O)[C@@H]1CCCN1C(=O)CNC(=O)[C@H](CCCCN)NC(=O)[C@@H](NC(=O)[C@@H]1CCCN1C(=O)[C@H](CCC(=O)O)NC(=O)[C@H](CCC(N)=O)NC(=O)[C@H](C)NC(=O)[C@H](CCCCN)NC(=O)[C@@H](N)C(C)C)C(C)C)C(C)C)[C@@H](C)O)[C@@H](C)CC)[C@@H](C)CC)C(=O)N[C@@H](CCCN=C(N)N)C(=O)N[C@@H](CS)C(=O)N[C@@H](C)C(=O)O [VKAQEPVKGPVSTKPGSCPIILIRCA] was tested. Which MIC [35] did it give?
**A.** Its MIC is at least 47.5 µM.

**Q.** What about the MIC [36] of the same molecule?
**A.** Its MIC is at least 47.5 µM.

**Q.** What about the MIC (Staphylococcus aureus MR) of the same molecule?
**A.** Its MIC is at least 47.5 µM.

**Q.** What about the MIC [37] of the same molecule?
**A.** The MIC was at least 95.1 µM.
